Measurements reported in a melting point compilation (Tetko et al.; mined from patent text by program, amines drawn as free bases though some values may be those of a salt).

Row | SMILES | melting point [°C]
1 | NC(Cc1c[nH]c2c(F)cccc12)C(=O)O (stereo unspecified) | 256 to 261
2 | COc1ccc(-n2nc(-c3c(-c4ccccc4)nn4ccccc34)ccc2=O)cc1 | 158
3 | N#CCc1ccc2nc(-c3ccccc3)oc2c1 | 144
4 | CCOC(=O)COc1c(CC=C(C)C)c(OC)cc(OC)c1C(=O)C=Cc1ccc(OC)cc1 | 85 to 86
5 | NC(=Nc1cccc(CNCCC(=O)Nc2ccc3c(c2)CCN3Cc2cccc3ccccc23)c1)c1cccs1 | 185 to 187
6 | CC1CCCCN1C(=O)C=Cc1ccc(F)cc1 (stereo unspecified) | 114 to 116
7 | CC(C)(C)OC(=O)N1CCC[C@H](O)[C@H](NC(=O)c2ccc(OC(C)(C)C)cc2)C1 | 132
8 | CCSc1ccc(NC(=S)NC(=O)OC)c(N)c1 | 168
9 | O=C=Nc1ccc(OCCOc2ccc(N=C=O)cc2)cc1 | 95 to 97
10 | CCOc1ccc2c(c1)n(C(C)(C)CC(C)(C)C)c(=O)n2S(=O)(=O)c1ccc([N+](=O)[O-])cc1OC | 158
11 | COc1cc(C)c(C(O)c2c(O)ccc(Cl)c2C)c(OC)c1OC (stereo unspecified) | 140 to 142
12 | Oc1cc(O)c2c(-c3cc(F)cc(F)c3)coc2c1 | 149 to 151
13 | CSCCC(NC(=O)c1ccc(Cl)cc1)NC(=NC#N)Nc1cccnc1 (stereo unspecified) | 104 to 105
14 | Cc1cnc2c(NC(=O)c3c(Cl)cccc3Cl)ccc(C)c2c1Cl | 236 to 240
15 | OCC(F)(F)c1ccccn1 | 58 to 60
16 | CC1(C)Oc2ccc(OCc3nc4cc(F)c(F)cc4s3)cc2[C@H](O)[C@@H]1c1cccc(NS(=O)(=O)C(F)(F)F)c1 | 191 to 193
17 | CCSC1=C(C#N)C(c2ccccc2)(c2ccccc2)C(=O)N1CCCNC(=O)OC(C)(C)C | 88
18 | COC(=O)[C@H](C)NC(=O)C(=O)Nc1ccccc1C(C)(C)C | 60.1 to 62.1
19 | CC(C)CCC(=O)N[C@H]1CC[C@H](CCN2CCC(c3cccc4c3CCO4)CC2)CC1 | 188
20 | CN1C(=O)C2C3C=CC(CC3)C2(c2ccc(F)c(F)c2)C1=O (stereo unspecified) | 125 to 127
21 | COc1ccc(CS[C@@H]2CN[C@H](C(=O)O)C2)cc1 | 198 to 200
22 | CS(=O)(=O)N[C@@H]1CCCC[C@H]1Nc1nc(Nc2cc(F)cc3c2OCCNC3=O)ncc1Cl | 177 to 181
23 | CCOC(=O)c1ncc2[nH]c3c(Br)cc(Br)cc3c2c1COC | 98 to 99
24 | CC(=O)c1ccc(C2=CCC(C)CC2)cc1 (stereo unspecified) | 50 to 52
25 | COC(=O)c1ccc2[nH]cc(CC#N)c2c1 | 127 to 129
26 | O=C(O)C(=O)c1ccc(F)c(Br)c1 | 68 to 73

Row | SMILES | melting point [°C]
27 | CC(=O)Nc1cnn2c(C)nc3ccccc3c12 | 258 to 260
28 | Cc1oc2ccccc2c1OC(C)(C)C(N)=O | 116 to 120
29 | c1ccc(OCC2CCN(CCCOc3cccc4[nH]ccc34)CC2)cc1 | 118 to 119
30 | Cc1ccc(-c2ccc(Cl)c(C(=O)NCC34CC5CC(CC(C5)C3)C4)c2)c(C(=O)O)n1 | 125 to 130
31 | COc1cccc(C(=O)Nc2nc(C)c(C(=O)NCc3ccccc3)s2)c1 | 75 to 77
32 | COc1ccccc1-n1c(=O)[nH]c2c(C(N)=O)nc(-c3cccc(C(N)=O)c3)nc21 | 338 to 339
33 | CC(=O)Nc1ccc(C=CC(=O)N2CCc3c([nH]c4ccccc34)C2c2ccccc2)cc1 (stereo unspecified) | 177 to 180
34 | CC(=O)OC1CSC(Oc2cccc(-c3ccc(Cl)nc3)c2)C(OC(C)=O)C1OC(C)=O (stereo unspecified) | 129
35 | c1ccc(-c2ccc3[nH]c4c(c3c2)CCNCC4)cc1 | > 250
36 | Cn1c(=O)ccc2cnc(N)nc21 | 237 to 253
37 | O=C1C=C(NC(=O)C(=O)c2cn(Cc3ccc(Cl)cc3)c3ccc(Cl)cc23)CO1 | 251 to 253
38 | CN(c1ccncc1)N1CCc2cc(O)ccc2C1 | 263 to 266
39 | CC1CN(c2ccccc2)C(=O)N(c2cccc(C(F)(F)F)c2)C1 (stereo unspecified) | 121 to 123
40 | COC(=O)CCc1ccc(Oc2ccc(-c3ccc(C#N)cc3)nn2)cc1 | 164 to 167
41 | COc1ccc(-c2[nH]nc3c2C(=O)c2c(NC(=O)NNC(=O)c4ccc(O)c(O)c4)cccc2-3)cc1 | > 300
42 | CC(Cc1ccc(OC(C)C)cc1)NCC(O)c1cccc(Cl)c1 (stereo unspecified) | 58 to 61
43 | CC(O)c1cn(C(c2ccccc2)(c2ccccc2)c2ccccc2)cn1 (stereo unspecified) | 156 to 157
44 | COC(=O)c1cc(CCNc2ncnc3nccnc23)ccc1Oc1cc(C(F)(F)F)ccn1 | 171 to 172
45 | COC1=CC(=O)C(O)=C(CCCCCCCC2OC2CCCCCCCC2=C(O)C(=O)C=C(OC)C2=O)C1=O (stereo unspecified) | 134 to 136
46 | C#CCn1nnc(SC(c2ccccc2)c2ccccc2)n1 | 85 to 86
47 | Cn1ccc(=O)c(-c2cccc(C(F)(F)F)c2)c1 | 122 to 123
48 | COc1cccc2c1C(NC1=Nc3ccc(Nc4nnc(C)o4)cc3CO1)CC2 (stereo unspecified) | 162
49 | CC(C)c1ccccc1S(=O)(=O)c1ccc(O)cc1 | 160
50 | Oc1ccc(-c2nc3cc(O)cc(Br)c3o2)c(F)c1 | 248 to 250
51 | c1ccc(N2CCN(Cc3coc4ccccc34)CC2)cc1 | 103 to 105
52 | O=C(CBr)c1ccc(OC2CCCCO2)cc1 (racemic) | 102 to 104

Row | SMILES | melting point [°C]
53 | [N-]=[N+]=N[C@H](C(=O)O)C12CC3CC(CC(C3)C1)C2 | 110 to 112
54 | COc1ccc(-c2cc(F)c3c(Cl)c(O)ccc3c2)cc1 | 120 to 124
55 | Oc1ccc(-c2nn(C3CCC3)c3c(C(F)(F)F)cccc23)c(O)c1 | 124 to 125
56 | Cc1cc(C(=O)O)c(NC(=O)Nc2ccc(Oc3ccccc3)cc2)s1 | 213 to 215
57 | CCS(=O)(=O)c1nnc(N(C(C)=O)C(=O)N(C)C)s1 | 145
58 | CC(C)C[C@@H](C(=O)N1CCN(C(c2ccc(F)cc2)c2ccc(F)cc2)CC1)N1CCOCC1 | 55 to 63
59 | COc1cnc2c(C)ccc(-c3cccc(C(F)(F)F)c3)c2n1 | 119 to 121
60 | C=C(Nc1nc(-c2ccccc2)c(-c2nc3ccccc3c(=O)n2-c2ccc(C(C)=O)cc2)s1)c1ccco1 | 232 to 233
61 | CN(C)C(=O)C1Oc2ccc([N+](=O)[O-])cc2O1 (stereo unspecified) | 109
62 | CCN(CC)CCOc1ccc(C2c3cc(OC)ccc3-c3ccc4ccccc4c32)cc1 (stereo unspecified) | 109 to 115
63 | CC(=O)ON=C(N)c1cccc(OC(C)=O)c1 | 128
64 | FC(F)C(F)(F)Oc1ccc(C=NNc2nc(Nc3ccc(OC(F)(F)F)cc3)nc(N3CCOCC3)n2)cc1 | 203 to 206
65 | O=C(Nc1ccc(OCc2ccccc2)cc1)C1CC1 | 162
66 | O=C(O)c1ccc(C(=O)Nc2cccc([N+](=O)[O-])c2)cc1 | 319
67 | C=CCO[C@@H]1CC(C(=O)O)=C[C@@H](OC(C)C)[C@@H]1NC(C)=O | 70 to 71
68 | S=C1Nc2c(Cl)cccc2CS1 | 125 to 126
69 | N#CCCNC1(CC2CCCCC2)C(=O)Nc2ccc(Cl)cc21 (stereo unspecified) | 208
70 | COC(=O)C(C)N(C(=O)CF)c1c(C)cccc1Cl (stereo unspecified) | 101 to 103
71 | O=C(NCCC1OCCO1)c1cc(Br)c(Br)[nH]1 | 155 to 157
72 | CCCCC(=O)C(=Cc1ccc(Cl)cc1)n1cncn1 | 117 to 120
73 | CCN(CC)CC1CCCCN1CCNC(=O)N1c2ccccc2NC(=O)c2csc(C)c21 (stereo unspecified) | 132 to 133
74 | CC1(C)C(c2ccncc2)=Nc2ccc(-c3ccc(=O)[nH]n3)cc21 | 305 to 307
75 | Cc1cc(N2CCc3ccccc32)nc(N)n1 | 242 to 244
76 | CCCCC(=N)NC(=O)Nc1ccc(Cl)c(Cl)c1 | 177 to 179
77 | NC(=O)c1c(F)ccc(OCc2ccc3sccc3c2)c1F | 146 to 148
78 | O=C(C[C@@H](O)C(F)(F)F)N[C@H]1CC[C@H](CCN2CCC(c3cccc4c3CCO4)CC2)CC1 | 189

Row | SMILES | melting point [°C]
79 | Cc1nc(N(C)c2cccnc2)sc1-c1ccnc(Nc2ccc(N3CCOCC3)cc2)n1 | 194 to 195
80 | CCCC(=O)c1sc(NC(=O)c2ccncc2)nc1-c1ccco1 | 191 to 194
81 | COCCOc1cccc(-c2ccc(C3CCN(S(=O)(=O)C(C)(C)C(=O)NO)CC3)cc2C)n1 | 134 to 138
82 | Cc1c2cnc3c([N+](=O)[O-])cccc3c2nn1C | 235 to 236
83 | Cc1cc2cc(Nc3ccnc4cc(-c5ccc(CNCCCN(C)C)cc5)sc34)ccc2[nH]1 | 167
84 | CCCCCCCCCCCCNC(=O)COc1ccc(/C=C/C(=O)C(F)(F)F)cc1 | 78.5 to 79
85 | COC(=O)CC/C(C)=C/Cc1c(O)c2c(c(C)c1OC)COC2=O | 104 to 105
86 | CC(CN1C(=O)c2ccccc2C1=O)OS(C)(=O)=O (stereo unspecified) | 111 to 121
87 | O=C(O)CCCCN(C1CCNCC1)S(=O)(=O)c1ccccc1 | 115 to 120
88 | O=C(NC(Cc1ccc(OCc2ccccc2)cc1)C(=O)NC1C(C(=O)O)OC(n2cnc3c(NC(=O)c4ccccc4)ncnc32)C1O)OCc1ccccc1 (stereo unspecified) | 150 to 155
89 | O=Cc1cccn2ccnc12 | 137 to 139
90 | CC(=O)NCC1=C(N2CCCC2=O)c2cc([N+](=O)[O-])ccc2OC1(C)C | 205
91 | CCCc1nn(C)c2c(=S)[nH]c(-c3ccccc3OCC)nc12 | 156 to 158
92 | CCN(CC)c1ccc(C=C2CC(C)CC(=Cc3ccc(N(CC)CC)cc3)C2=O)cc1 (stereo unspecified) | 169
93 | CC(CC(Br)CO)C1CCC2C(O)CCCC12C (stereo unspecified) | 153 to 154
94 | O=C(C(=CO)c1ccccc1)c1ccccc1 | 110 to 114
95 | COc1ccc(S(=O)(=O)Nc2ccc(C)cc2)c2c3ccccc3n(C=O)c12 | 193 to 199
96 | COC(=S)c1cc(C)nc(Cl)n1 | 90 to 92
97 | Cc1nc2cccc3n(CCCCCNS(=O)(=O)CC(F)(F)F)c(=O)c1n23 | 143 to 145
98 | CCOC(=O)COc1ccc(NC(=O)OCc2ccccc2)cc1 | 85 to 86
99 | Cc1oc(-c2ccccc2)nc1C(O)COc1ccc(C=C2SC(=S)NC2=O)nc1 (stereo unspecified) | 218
100 | CNC(=O)n1nc(Oc2c(Cl)cc(C(F)(F)F)cc2[N+](=O)[O-])cc1C | 140 to 142
101 | COC(=O)c1ccccc1S(=O)(=O)NC(=O)n1nc(OCC(F)(F)F)n(C)c1=O | 153
